Literature values, collected in patent US8143297B2, “Heterocyclic derivatives as modulators of ion channels” (Vertex Pharmaceuticals Incorporated, priority 2008, dated 2012).

How the values were obtained:
Details in all cases: read-out: TTX IC50
NaV1.3 = NaV1.3 (Homo sapiens, UniProt Q9NY46)
NaV1.2 = NaV1.2 (Homo sapiens, UniProt Q99250)
NaV1.6 = NaV1.6 (Homo sapiens, UniProt Q9UQD0)
NaV1.8 = NaV1.8 (Homo sapiens, UniProt Q9Y5Y9)
NaV1.9 = NaV1.9 (Homo sapiens, UniProt Q9UI33)
NaV1.1 = NaV1.1 (Homo sapiens, UniProt P35498)

NaV1.9, sequence (Q9UI33 whole entry, looked up): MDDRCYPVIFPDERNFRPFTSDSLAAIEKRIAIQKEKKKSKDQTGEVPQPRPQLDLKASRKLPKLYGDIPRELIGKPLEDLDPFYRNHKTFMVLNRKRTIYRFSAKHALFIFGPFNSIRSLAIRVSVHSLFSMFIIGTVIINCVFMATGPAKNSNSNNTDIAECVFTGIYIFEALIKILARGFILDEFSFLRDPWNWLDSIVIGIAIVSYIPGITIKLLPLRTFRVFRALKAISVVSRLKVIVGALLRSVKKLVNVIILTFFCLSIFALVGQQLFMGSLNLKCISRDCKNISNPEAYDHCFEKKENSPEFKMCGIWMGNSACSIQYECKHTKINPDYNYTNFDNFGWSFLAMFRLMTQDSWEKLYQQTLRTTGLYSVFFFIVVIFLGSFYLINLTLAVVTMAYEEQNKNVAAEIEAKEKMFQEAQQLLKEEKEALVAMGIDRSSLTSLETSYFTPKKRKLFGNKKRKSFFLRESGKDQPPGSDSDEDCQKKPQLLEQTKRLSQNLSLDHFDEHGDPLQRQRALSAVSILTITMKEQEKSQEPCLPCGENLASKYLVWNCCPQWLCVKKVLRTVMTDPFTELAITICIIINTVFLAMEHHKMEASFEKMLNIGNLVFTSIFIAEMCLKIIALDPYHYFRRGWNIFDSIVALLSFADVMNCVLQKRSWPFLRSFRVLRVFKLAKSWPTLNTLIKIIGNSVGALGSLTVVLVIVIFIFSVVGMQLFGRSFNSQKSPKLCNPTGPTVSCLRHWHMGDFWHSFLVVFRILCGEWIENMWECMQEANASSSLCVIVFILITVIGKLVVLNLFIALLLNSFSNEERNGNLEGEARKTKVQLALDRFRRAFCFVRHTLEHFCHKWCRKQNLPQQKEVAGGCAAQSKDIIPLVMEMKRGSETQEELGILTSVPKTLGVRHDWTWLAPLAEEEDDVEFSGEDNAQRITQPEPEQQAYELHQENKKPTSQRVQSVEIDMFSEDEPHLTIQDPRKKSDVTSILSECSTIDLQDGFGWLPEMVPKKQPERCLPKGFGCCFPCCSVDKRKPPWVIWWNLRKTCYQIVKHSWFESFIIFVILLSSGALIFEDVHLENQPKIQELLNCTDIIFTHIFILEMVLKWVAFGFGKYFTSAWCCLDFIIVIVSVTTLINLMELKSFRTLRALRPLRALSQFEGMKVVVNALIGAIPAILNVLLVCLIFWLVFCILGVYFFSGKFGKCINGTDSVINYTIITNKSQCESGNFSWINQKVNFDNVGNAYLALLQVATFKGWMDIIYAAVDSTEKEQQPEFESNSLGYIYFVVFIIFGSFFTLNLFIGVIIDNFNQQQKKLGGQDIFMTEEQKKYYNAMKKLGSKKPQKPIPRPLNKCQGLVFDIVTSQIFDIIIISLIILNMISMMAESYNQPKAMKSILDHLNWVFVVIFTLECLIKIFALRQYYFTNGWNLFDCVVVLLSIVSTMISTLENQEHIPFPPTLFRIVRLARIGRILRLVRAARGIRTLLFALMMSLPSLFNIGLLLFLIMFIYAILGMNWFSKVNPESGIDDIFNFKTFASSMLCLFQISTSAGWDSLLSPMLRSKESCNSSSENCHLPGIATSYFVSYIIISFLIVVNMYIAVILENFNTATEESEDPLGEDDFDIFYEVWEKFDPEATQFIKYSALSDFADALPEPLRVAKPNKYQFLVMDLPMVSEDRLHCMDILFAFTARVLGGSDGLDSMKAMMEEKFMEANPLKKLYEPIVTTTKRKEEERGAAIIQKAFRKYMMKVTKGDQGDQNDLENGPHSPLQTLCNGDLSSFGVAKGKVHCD
NaV1.2, sequence (Q99250 whole entry, looked up): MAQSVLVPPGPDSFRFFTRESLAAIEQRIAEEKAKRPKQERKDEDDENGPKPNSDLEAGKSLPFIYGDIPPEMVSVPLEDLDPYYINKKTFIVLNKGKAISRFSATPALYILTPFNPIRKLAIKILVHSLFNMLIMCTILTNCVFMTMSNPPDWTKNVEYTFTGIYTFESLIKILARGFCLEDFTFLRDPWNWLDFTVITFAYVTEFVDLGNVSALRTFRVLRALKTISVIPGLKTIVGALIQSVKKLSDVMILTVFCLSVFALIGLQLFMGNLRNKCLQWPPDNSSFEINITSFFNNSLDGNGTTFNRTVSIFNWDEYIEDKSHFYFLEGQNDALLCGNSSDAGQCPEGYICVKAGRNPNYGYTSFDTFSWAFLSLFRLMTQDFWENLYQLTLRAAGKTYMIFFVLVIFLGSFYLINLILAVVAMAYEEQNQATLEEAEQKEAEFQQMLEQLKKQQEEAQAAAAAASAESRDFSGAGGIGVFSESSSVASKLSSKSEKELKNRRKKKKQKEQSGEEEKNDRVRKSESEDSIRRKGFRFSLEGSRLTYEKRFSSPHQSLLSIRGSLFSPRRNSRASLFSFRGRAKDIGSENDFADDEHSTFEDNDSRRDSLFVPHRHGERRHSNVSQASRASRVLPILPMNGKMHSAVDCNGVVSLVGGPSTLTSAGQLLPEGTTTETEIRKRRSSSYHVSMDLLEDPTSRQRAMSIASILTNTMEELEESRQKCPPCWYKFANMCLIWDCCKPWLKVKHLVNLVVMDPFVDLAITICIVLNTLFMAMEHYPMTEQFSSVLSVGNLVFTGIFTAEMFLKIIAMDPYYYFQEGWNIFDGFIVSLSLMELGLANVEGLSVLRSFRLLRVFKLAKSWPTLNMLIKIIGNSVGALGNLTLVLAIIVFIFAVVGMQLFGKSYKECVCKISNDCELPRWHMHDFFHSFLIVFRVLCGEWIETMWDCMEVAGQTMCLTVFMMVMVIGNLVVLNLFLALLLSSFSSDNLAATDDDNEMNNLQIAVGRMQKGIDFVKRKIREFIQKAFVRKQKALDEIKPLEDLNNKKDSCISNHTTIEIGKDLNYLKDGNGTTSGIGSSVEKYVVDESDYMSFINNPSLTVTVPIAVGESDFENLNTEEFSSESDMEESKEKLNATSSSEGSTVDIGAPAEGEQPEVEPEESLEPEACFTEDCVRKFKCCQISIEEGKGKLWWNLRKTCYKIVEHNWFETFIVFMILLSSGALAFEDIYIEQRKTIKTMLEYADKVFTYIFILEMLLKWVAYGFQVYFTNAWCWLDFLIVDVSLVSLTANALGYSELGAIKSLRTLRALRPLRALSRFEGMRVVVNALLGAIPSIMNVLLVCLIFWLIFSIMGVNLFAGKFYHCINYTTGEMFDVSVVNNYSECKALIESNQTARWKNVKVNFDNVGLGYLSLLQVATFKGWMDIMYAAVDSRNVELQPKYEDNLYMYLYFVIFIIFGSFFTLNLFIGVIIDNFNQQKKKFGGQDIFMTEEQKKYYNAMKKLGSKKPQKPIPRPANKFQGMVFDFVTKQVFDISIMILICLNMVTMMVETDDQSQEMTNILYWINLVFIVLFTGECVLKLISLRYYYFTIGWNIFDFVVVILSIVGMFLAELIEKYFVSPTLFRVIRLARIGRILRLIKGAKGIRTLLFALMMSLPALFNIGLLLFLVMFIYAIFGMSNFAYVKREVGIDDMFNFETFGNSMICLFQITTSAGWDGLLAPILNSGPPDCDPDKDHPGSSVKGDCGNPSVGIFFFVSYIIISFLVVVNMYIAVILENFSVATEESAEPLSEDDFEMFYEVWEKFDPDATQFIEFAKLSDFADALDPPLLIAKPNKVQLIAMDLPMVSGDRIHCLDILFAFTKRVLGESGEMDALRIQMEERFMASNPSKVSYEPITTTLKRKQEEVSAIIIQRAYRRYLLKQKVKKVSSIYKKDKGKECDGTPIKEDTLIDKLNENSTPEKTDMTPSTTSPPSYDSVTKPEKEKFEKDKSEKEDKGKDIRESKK

Q: Which IC50 (NaV1.3) does the source give for NC1=N[C@H](O)[C@H]2[C@H]3O[C@]4(O)O[C@@H]([C@@H](O)[C@@]2(N1)[C@@H]4O)[C@]3(O)CO [TTX, tetrodotoxin] here?
A: Its IC50 is 15 nM.

Q: What about the IC50 (NaV1.2) of the same compound?
A: Its IC50 is 10 nM.

Q: And the IC50 (NaV1.6)?
A: The IC50 was 6 nM.

Q: What about the IC50 (NaV1.8) of the same compound?
A: Its IC50 is over 50000 nM.

Q: And the IC50 (NaV1.9)?
A: The IC50 was 1000 nM.

Q: And the IC50 (NaV1.1)?
A: Its IC50 is 10 nM.
